{"source": "paper PMC13415951", "about": "(Journal of Experimental Botany, 2026)", "key": {"[1]": {"target": "T1, HvUGT13248 (Hordeum vulgare subsp. vulgare, UniProt M0Y4P1)", "T1 sequence (M0Y4P1 1-475)": "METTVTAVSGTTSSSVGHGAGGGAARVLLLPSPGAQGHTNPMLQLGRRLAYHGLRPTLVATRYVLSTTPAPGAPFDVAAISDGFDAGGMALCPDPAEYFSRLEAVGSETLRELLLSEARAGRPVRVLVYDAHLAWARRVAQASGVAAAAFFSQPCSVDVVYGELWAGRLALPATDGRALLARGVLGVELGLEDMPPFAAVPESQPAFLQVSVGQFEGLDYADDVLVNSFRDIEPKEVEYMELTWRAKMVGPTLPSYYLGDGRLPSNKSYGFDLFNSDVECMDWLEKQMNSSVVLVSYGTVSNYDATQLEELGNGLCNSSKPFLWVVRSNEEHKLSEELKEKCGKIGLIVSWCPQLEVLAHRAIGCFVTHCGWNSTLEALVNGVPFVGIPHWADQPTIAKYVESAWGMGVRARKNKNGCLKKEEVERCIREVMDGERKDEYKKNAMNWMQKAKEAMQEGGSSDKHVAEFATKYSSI", "assay": "biochemical", "assay_type": "biochemical", "parameters": "made in house; host or cells: E. coli"}, "[2]": {"test_system": "Heliothis zea larvae", "parameters": "method as in Dowd et al., 1989", "conditions": "ref Dowd et al., 1989; cited from earlier work"}, "[3]": {"test_system": "B. distachyon Bd21-3", "parameters": "species or system Brachypodium distachyon", "conditions": "in vivo"}, "[4]": {"target": "T2, BdUGT5g03300 (Brachypodium distachyon, UniProt I1IW79)", "T2 sequence (I1IW79 1-469)": "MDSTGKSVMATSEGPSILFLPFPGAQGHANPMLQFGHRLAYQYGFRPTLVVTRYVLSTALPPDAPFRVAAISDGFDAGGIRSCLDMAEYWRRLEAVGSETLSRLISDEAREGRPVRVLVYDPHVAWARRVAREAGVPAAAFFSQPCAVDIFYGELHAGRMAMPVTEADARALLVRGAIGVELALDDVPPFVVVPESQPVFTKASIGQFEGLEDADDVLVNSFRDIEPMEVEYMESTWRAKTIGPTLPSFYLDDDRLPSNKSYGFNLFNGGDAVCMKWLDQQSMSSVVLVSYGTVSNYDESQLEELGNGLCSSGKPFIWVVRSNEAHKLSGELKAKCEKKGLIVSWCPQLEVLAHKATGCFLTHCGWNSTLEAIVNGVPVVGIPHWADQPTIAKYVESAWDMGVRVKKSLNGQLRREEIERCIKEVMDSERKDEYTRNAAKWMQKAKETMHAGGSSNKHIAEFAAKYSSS", "assay": "biochemical"}, "[5]": {"test_system": "B. distachyon line OE-10R14", "parameters": "species or system Brachypodium distachyon", "conditions": "in vivo"}, "[6]": {"target": "T3, OsUGT79 H122A/L123A/Q202A (Oryza sativa subsp. japonica, UniProt Q7XT97, H122A/L123A/Q202A)", "T3 sequence (Q7XT97 1-466 H122A/L123A/Q202A)": "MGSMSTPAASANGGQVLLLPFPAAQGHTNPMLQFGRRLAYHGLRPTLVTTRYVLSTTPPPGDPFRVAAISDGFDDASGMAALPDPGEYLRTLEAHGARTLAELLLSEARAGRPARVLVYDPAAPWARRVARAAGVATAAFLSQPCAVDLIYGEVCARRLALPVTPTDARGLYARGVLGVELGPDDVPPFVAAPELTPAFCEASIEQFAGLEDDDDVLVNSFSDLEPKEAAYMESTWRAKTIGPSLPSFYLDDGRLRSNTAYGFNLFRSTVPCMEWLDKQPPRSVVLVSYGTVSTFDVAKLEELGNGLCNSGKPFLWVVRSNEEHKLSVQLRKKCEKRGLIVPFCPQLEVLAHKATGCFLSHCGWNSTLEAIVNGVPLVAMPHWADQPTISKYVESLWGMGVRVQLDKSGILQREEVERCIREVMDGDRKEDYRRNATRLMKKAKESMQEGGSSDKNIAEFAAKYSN", "assay_type": "biochemical"}, "[7]": {"test_system": "human glucuronosyltransferases in liver microsomes", "parameters": "method as in Woelflingseder et al., 2019", "conditions": "ref Woelflingseder et al., 2019; cited from earlier work"}, "[8]": {"conditions": "read-out: Glucosylation rate of DON, percentage of the control"}}, "data": [{"smiles": "CC1(C)CCC[C@]2(C)[C@@H]3[C@H]1[C@@H](O)[C@@]2(C)C[C@H]3O", "note": "[CUL, culmorin]", "values": [{"measurement": "Increase of apparent KM of DON", "setting": "[1]", "value": "~10", "unit": "fold"}, {"measurement": "K iu of CUL (uncompetitive inhibition, UDP-glucose as variable substrate)", "setting": "[1]", "value": 91, "unit": "µM"}, {"measurement": "Ki", "setting": "[1]", "value": 56, "unit": "µM"}, {"measurement": "Effect on growth of Heliothis zea larvae", "setting": "[2]", "value": "no negative effects"}, {"measurement": "Effect on mortality of Heliothis zea larvae in combination with DON", "setting": "[2]", "value": "significantly increases mortality"}, {"measurement": "Effect of CUL alone on root length", "setting": "[3]", "value": "did not elicit any significant effect"}, {"measurement": "Effect of CUL with 2 mg l^−1 DON on root length", "setting": "[3]", "value": "clear dose-dependent synergistic effect"}, {"measurement": "Specific activity (glucoside formation)", "setting": "[4]", "value": "≈ 1×10^−3 nmol min^−1 mg^−1"}, {"measurement": "Specific activity with CUL, fold below the value obtained with DON", "setting": "[4]", "value": "~1000", "unit": "fold"}, {"measurement": "Glucosylation rate of DON, percentage of the control", "setting": "[4]; 25 µM", "value": "0.84±0.03", "unit": "%"}, {"measurement": "remaining activity at 25 µM", "setting": "[4]; [8]", "value": "< 1", "unit": "%"}, {"measurement": "remaining activity at 125 µM", "setting": "[4]; [8]", "value": "0.19 ± 0.01", "unit": "%"}, {"measurement": "Effect of addition of CUL to 50 mg l^−1 DON on root length", "setting": "[5]", "value": "severe breakdown of resistance to DON"}, {"measurement": "Specific activity (glucoside formation)", "setting": "[6]", "value": "2.89 ± 0.10", "unit": "nmol/min/mg"}, {"measurement": "Effect on DON-glucuronidation", "setting": "[7]", "value": "suppresses DON-glucuronidation"}]}]}
